According to patent publication US9259433B2, “Synergistic antiviral compositions comprising a viral attachment inhibitor, an integration inhibitor, and a proviral transcription inhibitor, and their use” (priority 2007, dated 2016):
Where two headings read alike, the source gives them in different places.

Assays:
wild type HIV-1 envelope = test: HIV-based cell-cell fusion (syncytium) assay, co-culture of HeLa-CD4+ cells and CHO-WT cells; settings: for antiviral entry activity: HIV entry / syncytium formation
Description: Tieghemella heckelii (Sapotaceae, Th) is a large tree found in the West African rain forest. In January and February, the plant blossoms and develops ovoid fruits of 8 cm length and 7 cm diameter, which ripen in July-October. Many parts of the tree are used in traditional medicine. We have used a series of high-speed counter-current chromatography (HSCC), viral entry and infectivity assay and HIV-based cell-cell fusion assay to isolate specific HIV viral entry inhibitors from the ovoid fruits of the plants. The procedures for the isolation have been described in detail (4). Two pure saponin compounds, Arganine C (Rev 1) and Tieghemella (Gen. 1) have been isolated with the yield of 0.48% and 0.6% respectively.
In HIV infection, syncytia are the result of viral attachment and cell membrane fusion which create giant multi-nucleated cells consisting of both infected and uninfected cells. Rev. 1 and Gen. […] Rev-1 and Gen-1 are structurally identical except for one attached group at C23 (FIG. 1A). C23 glucose for Rev-1 and glucuronic acid for Gen-1 (4, 5). Their antiviral activity requires the C28 sugar chain. […] The four sugars in the substituent at the C28 position are L-arabinose, L-rhamnose, D-xylose and L-rhamnose (FIG. 1B).

HIV particles = test: HIV-1 attachment to pre-cooled HeLa CD4+ cells, viral capsid in cell lysates; settings: HeLa CD4+ cells at 4° C., 30-minute attachment, up to 20 μM
Protocol: To determine whether the two saponins act exclusively at the attachment step, target HeLa CD4^+ cells were initially pre-cooled at 4° C. before viral exposure to exclude the possibility of virus internalization. Each compound, at graded concentrations, was then mixed with HIV particles and added to target cells in cold media. After a 30-minute attachment period, the cells were profusely washed to remove unbound virus. […] H9 cells (4×10^5) were first incubated with compound and then infected with virus for one hour at 37° C. in CO2 incubator to permit virus fusion and entry. The cells were then centrifuged and washed 3 times with phosphate buffered saline (PBS) to remove the unbound virus as described previously (6,7). The viral entry was determined by p24 antigen-capture assay. For the drug effect on HIV-1 replication and infection, the culture was incubated for 8 days. Viral replication was determined by the amount of HIV-1 p24 antigen in culture supernatant after 8 days of virus infection in H9 cells using the HIV/p24 monoclonal antibody assay (8). […] Only low concentrations were used for testing to minimize the cellular toxicities of the drug.

HIV-1RTMF = test: Drug combination study in H9 cells infected with HIV-1RTMF, p24 assay; assay type: cell-based; settings: Human immunodeficiency virus 1, H9, 192 h
Description: We tested drug combinations against two different cells infected with laboratory strain of HIV-1 RTMF. For these drug combinational studies, both the H9 cells and human PBMC have been used. We first tested how our inhibitors affect one specific strain of HIV which is resistant to drug against RT (HIV-1RTMF). Briefly H9 (1×10^5/ml) were infected with HIV-1RTMF strain with a multiplicity of infection of 0.1. These cells were further tested with three drugs, M522, Gen-1 and G4N, either in combination or separately (8, 10, 21B). After 4-day incubation at 37° C., H9 cells were subcultured with fresh culture medium containing appropriate concentrations 0, 1.25, 2.5, 5, 10, 20, 40 and 80 μM of each of the drugs, or of a combination of all three of the drugs, each at the indicated concentration. The inhibition for HIV-1 by these combinations of drugs was examined using p24 assay after 8 days.
(§1) Similarly, PBMC cells were isolated from a healthy blood sample and these cells were stimulated by PHA and IL-2. PBMC (5×10^6/ml) were infected with HIV-1RTMF. The cells were treated with three combinations of drugs, M522, Gen-1 and G4N. Fresh media and drugs were added after 4 days with drug concentrations 0, 1.25, 2.5, 5, 10, 20, 40 and 80 μM. The inhibition for HIV-1 by these combinations of drugs was also examined by using p24 assay after 8 days. […] In comparison, cytotoxicity for the three drugs combined to H9 cells was also analyzed using an MTT assay.

red blood cells = test: Hemolysis, release of hemoglobin from red blood cells; assay type: cell-based
Protocol: As such, Rev-1 and Gen-1 are both hemolytic, a property which may restrict potential use in therapy. To see whether modification of C28 sugar side chain can abolish such hemolytic effect, we acetylated the hydroxyl group of the C28 sugars with acetic anhydride. Briefly, 10 ml of pyridine and 5 ml acetic anhydride were added to a solution of pure tieghemella (Gen-1, 100 mg) in 5 ml methanol at 0° C. The solution mixture was allowed to reflux for […]. The resultant mixture was extracted with water at 20° C. as described in reference 9. The aqueous solution was washed several times with dichloromethane. The water filtrate was dried under the hood to afford oAc-Gen-1; (160 mg). We compared the hemolytic effect of Gen-1 and oAc-Gen-1 by measuring the release of hemoglobin from red blood cells in the presence of Gen.1 or o-Ac Gen.

[1] = test system: Sp1 binding sites of the HIV long terminal repeat (LTR); settings: in vitro; cited from earlier work
HSV-2 = test: Mouse vaginal model of HSV-2 infection; assay type: in vivo, female CF-1 mice; settings: 10 mM
Description: P4N was also found to be quite effective.

HIV transcription = settings: cited from earlier work
HIV-1 = test: Acute HIV-1 infection of H9 cells; assay type: cell-based
Description: (§2) a. Salvia genus of Labiaceae family contains approximately 1000 species. 78 of these are distributed in different regions in China. […] An INi search was established based on an assay-guided purification procedure utilizing different concentrations of methanol, propanol, a two-layer extraction system (low salt water/butanol), and a high resolution inverted phase HPLC (Sperisorb OD S-2).

reverse transcriptase = biological target: T1, reverse transcriptase (Human immunodeficiency virus type 1 group M subtype B, UniProt P04585); test: Reverse transcriptase activity and viral DNA levels in infected cells; assay type: cell-based, HIV
T1 construct: endogenous in cells; host or cells: HIV-infected cells (H9 cells named in the same paragraph)
Description: as §2

[2] = biological target: wild type HIV-1 integrase (Human immunodeficiency virus type 1 group M subtype B, UniProt P04585); test: Disintegration assay; assay type: biochemical; settings: equal efficacy with deletion mutant
Protocol: (§3) To determine whether M522 and M532 are acting against the catalytic core domain specifically, disintegration assay was tested using deletion mutant IN containing only the core domain of HIV integrase. Such deletion mutant is defective for normal integration, but it is capable of catalyzing a reversal of the forward reaction, termed “disintegration”. The disintegration reaction can be assayed by using a deletion mutant HIV-1 integrase (IN^50-212) which lacks both the amino terminal zinc binding and the carboxyl terminal DNA binding domains but remains active in this assay, whereas such truncated IN loses activity in the 3′-processing and joining (strand transfer) assays. So, disintegration assay can be used to probe the site of drug-enzyme binding.

[3] = biological target: deletion mutant HIV-1 integrase (IN^50-212) (Human immunodeficiency virus type 1 group M subtype B, UniProt P04585); test: Disintegration assay; assay type: biochemical; settings: IN^50-212 core domain; equal efficacy with wild type
Protocol: as §3

HIV = HIV entry in H9 cells; assay type: cell-based; settings: compound by itself
Description: as §2

[4] = test system: HIV-1RTMF (AZT-resistant virus); test: HIV replication in infected H9 cells, HIV/p24 monoclonal antibody assay; assay type: cell-based; settings: H9 cells infected with HIV-1RTMF in the presence of drug
Protocol: The inhibitory effect of M522 and M532 against HIV replication was further examined using 5 different strains of HIV-1, drug resistant and primary isolates in the presence of a variety of drug concentrations in infected H9 cells.
(§4) A series of drug concentrations ranging from 1.25 μg/ml to 160 μg/ml were used for testing the cytotoxicity of M522 and M532 in H9 cells, using the MTT assay to determine the viability of H9 cells in culture.

HIV-1 integrase = HIV-1 integrase (Human immunodeficiency virus type 1 group M subtype B, UniProt P04585); test: HIV-1 integrase catalytic activity of 3'-joining to the target DNA; assay type: biochemical; settings: read-out: IC50, 3′-joining to the target DNA
Description: as §2

H9 cells = assay type: cell-based; settings: 192 h
Protocol: as §4, with “culture. […] In fact, the drug-protected, HIV-infected H9 cells appeared to be morphologically identical to the uninfected control cells (6).” for “culture.”
as §1

**Q.** What does the source list for `CC1(C)CC[C@]2(C(=O)O)[C@H](O)C[C@]3(C)C(=CC[C@@H]4[C@@]5(C)C[C@H](O)[C@H](O[C@@H]6O[C@H](C(=O)O)[C@@H](O)[C@H](O)[C@H]6O)[C@@](C)(CO)[C@@H]5[C@H](O)C[C@]43C)[C@@H]2C1` [A-GEN, 16α-hydroxyprotobassic acid 3-0-β-D-glucuronopyranoside]?
**A.** antiviral entry activity (wild type HIV-1 envelope): total loss of antiviral entry activity; inhibition of attachment (HIV particles): totally devoid of activity

**Q.** Which antiviral entry activity (wild type HIV-1 envelope) does the source give for `C[C@@H]1O[C@@H](O[C@@H]2[C@@H](O)[C@H](O[C@@H]3[C@@H](O)[C@@H](O)[C@H](O[C@H]4[C@H](OC(=O)[C@]56CCC(C)(C)C[C@H]5C5=CC[C@@H]7[C@@]8(C)C[C@H](O)[C@H](O[C@@H]9O[C@H](C(=O)O)[C@@H](O)[C@H](O)[C@H]9O)[C@@](C)(CO)[C@@H]8[C@H](O)C[C@@]7(C)[C@]5(C)C[C@H]6O)OC[C@H](O)[C@@H]4O)O[C@H]3C)OC[C@H]2O)[C@H](O)[C@H](O)[C@H]1O` [Gen-1, Tieghemelin] here?
**A.** less potent

**Q.** And the IC50 (wild type HIV-1 envelope; Human immunodeficiency virus 1)?
**A.** 17 µM

**Q.** What about the IC50 (HIV-1RTMF) of the same molecule?
**A.** 40 µM

**Q.** What about the inhibition of attachment (HIV particles) of the same molecule?
**A.** dose-dependent inhibition of attachment

**Q.** What about the hemolytic effect (red blood cells) of the same molecule?
**A.** hemolytic

**Q.** And the “red blood cells lysed” value (red blood cells; 57 μM)?
**A.** 50%

**Q.** Which “effect on Sp1 binding” value [1] does the source give for `C[C@H](Cc1ccc(OCCN2CCCCC2)c(OCCN2CCCCC2)c1)[C@@H](C)Cc1ccc(OCCN2CCCCC2)c(OCCN2CCCCC2)c1` [P4N] here?
**A.** disrupt Sp1 transcription factor binding

**Q.** And the average scale (HSV-2)?
**A.** 0.19

**Q.** And the animals infected (HSV-2; 10 mice per group)?
**A.** 2 of 10

**Q.** Which antiviral entry activity (wild type HIV-1 envelope) does the source give for `C[C@@H]1O[C@@H](O[C@@H]2[C@@H](O)[C@H](O[C@@H]3[C@@H](O)[C@@H](O)[C@H](O[C@H]4[C@H](OC(=O)[C@]56CCC(C)(C)C[C@H]5C5=CC[C@@H]7[C@@]8(C)C[C@H](O)[C@H](O[C@@H]9O[C@H](CO)[C@@H](O)[C@H](O)[C@H]9O)[C@@](C)(CO)[C@@H]8[C@H](O)C[C@@]7(C)[C@]5(C)C[C@H]6O)OC[C@H](O)[C@@H]4O)O[C@H]3C)OC[C@H]2O)[C@H](O)[C@H](O)[C@H]1O` [Rev.1, arganine C] here?
**A.** strongly inhibited

**Q.** What about the IC50 (wild type HIV-1 envelope; HIV-based cell-cell fusion assay (FIG. 1), read-out: IC50) of the same molecule?
**A.** 2.8 µM

**Q.** What about the inhibition of attachment (HIV particles) of the same molecule?
**A.** dose-dependent inhibition of attachment

**Q.** And the hemolytic effect (red blood cells; effective drug concentrations that blocked viral entry)?
**A.** hemolytic

**Q.** For `CC(Cc1ccc(O)c(O)c1)C(C)Cc1ccc(O)c(O)c1` (stereo not shown) [NDGA, nordihydroguaiaretic acid, reference compound], which “effect on Sp1 binding” value [1] is on record?
**A.** no effect on Sp1 binding

**Q.** What about the “inhibition of HIV transcription” value (HIV transcription) of the same molecule?
**A.** does not inhibit HIV transcription

**Q.** With `O=C(/C=C/c1ccc(O)c2c1[C@H](C(=O)O[C@H](Cc1ccc(O)c(O)c1)C(=O)O)[C@@H](c1ccc(O)c(O)c1)O2)O[C@H](Cc1ccc(O)c(O)c1)C(=O)O` [M532, lithospermic acid B] as the molecule, how does the IC50 (HIV-1) read?
**A.** 6.9 µM

**Q.** What about the “levels of intracellular strong stop and full-length viral DNA” value (reverse transcriptase; following drug treatment) of the same molecule?
**A.** remained unchanged

**Q.** What about the “inhibition of reverse transcriptase activity” value (reverse transcriptase; infected cells) of the same molecule?
**A.** no inhibition of reverse transcriptase activity

**Q.** And the inhibition of disintegration [2]?
**A.** inhibited

**Q.** What about the inhibition of disintegration [3] of the same molecule?
**A.** inhibited

**Q.** And the “prevention of HIV entry” value (HIV)?
**A.** Neither M522 nor M532 by itself prevents HIV entry

**Q.** What about the syncytia formation [4] of the same molecule?
**A.** syncytia formation was prevented

**Q.** And the IC50 (HIV-1 integrase)?
**A.** 0.37 µM

**Q.** And the “CC100 (highest concentration tested, cells remained viable)” value (H9 cells)?
**A.** 160 µg/mL

**Q.** For `CC1(C)CC[C@]2(C(=O)O)[C@H](O)C[C@]3(C)C(=CC[C@@H]4[C@@]5(C)C[C@H](O)[C@H](O[C@@H]6O[C@H](CO)[C@@H](O)[C@H](O)[C@H]6O)[C@@](C)(CO)[C@@H]5[C@H](O)C[C@]43C)[C@@H]2C1` [A-REV, 16α-hydroxyprotobassic 3-0-β-D-glycopyransoide], which antiviral entry activity (wild type HIV-1 envelope) is on record?
**A.** total loss of antiviral entry activity

**Q.** For `COc1cc(C[C@H](C)[C@H](C)Cc2ccc(O)c(O)c2)ccc1O` [3′-O-methyl NDGA], which “inhibition of HIV transcription” value (HIV transcription) is on record?
**A.** specifically block HIV transcription
